Source: patent US12331018B2, “Pyrrolidine orexin receptor agonists” (Merck Sharp & Dohme LLC, priority 2019, dated 2025)
Read-outs that look alike come from different tables or passages of the source.

Molecular target: T1, human OX2R (Homo sapiens, UniProt O43614)
T1 construct: expressed in transfected cells; host or cells: CHO (Chinese hamster ovary) cells, grown under G418 selection
T1 sequence (O43614 1-444): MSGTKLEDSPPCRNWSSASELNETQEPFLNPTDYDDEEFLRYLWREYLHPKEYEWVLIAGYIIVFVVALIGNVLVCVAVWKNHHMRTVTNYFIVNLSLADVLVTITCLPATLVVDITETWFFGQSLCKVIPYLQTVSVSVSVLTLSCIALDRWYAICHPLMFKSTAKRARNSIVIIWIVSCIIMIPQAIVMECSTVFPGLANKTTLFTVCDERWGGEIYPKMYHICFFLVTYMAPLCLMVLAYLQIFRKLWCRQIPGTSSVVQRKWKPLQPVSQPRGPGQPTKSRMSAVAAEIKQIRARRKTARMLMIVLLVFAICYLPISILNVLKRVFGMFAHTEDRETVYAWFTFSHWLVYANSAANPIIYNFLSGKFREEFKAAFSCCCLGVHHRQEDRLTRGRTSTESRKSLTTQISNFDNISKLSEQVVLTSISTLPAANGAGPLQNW
Test: IPOne (IP-1 accumulation) assay in CHO cells expressing human OX2R
Type: cell-based
Settings: for Emax, % of reference agonist: OX2R, percentage of sample raw value/mean max effect (reference compound at 1 uM with 100% activity)
From the text: The utility of the compounds in accordance with the present invention as orexin receptor OX1R and/or OX2R agonists may be readily determined without undue experimentation by methodology well known in the art. Both the OX1R and/or OX2R G-coupled protein receptors (GPCRs) couple through the Gaq signaling pathway, which ultimately promotes calcium mobilization via inositol triphosphate (IP3) production. The half-life of IP-3 is relatively short, being rapidly metabolized to inositol monophosphate (IP-1), which can be readily detected using a commercially available assay kit (IP-One; Cisbio; cat #621PAPEC) coupled with a cell line expressing the target receptor(s) of interest. The utility of the compounds in accordance with the present invention as orexin receptor OX1R and/or OX2R agonists may be determined utilizing this assay.
In a typical experiment, the OX1 and OX2 receptor agonist activity is determined in accordance with the following general experimental method. Chinese hamster ovary (CHO) cells expressing human OX1R and/or the human OX2R were grown in Iscove's modified DMEM containing glutaMAX™, 1% G418, 100 U/mL penicillin, 100 μg/mL streptomycin and 10% heat-inactivated qualified fetal bovine serum (FBS). The OX2R cells were seeded at 10,000 cells/well/50 μL and the OX1R cells were seeded at 20,000 cells/well/50 μL into 384-well white tissue culture plates (Greiner; cat #781080). All cell/media reagents were from GIBCO-Invitrogen Corp. The seeded cell plate(s) were incubated at 37° C. with 5% CO2 and 85% humidity for 20-24 hours. On the day of the assay, assay-ready compound plates were prepared using an acoustic liquid handler (ECHO; Labcyte), which dispensed sufficient volume of test compound stock (10 mM in DMSO) or 100% DMSO to prepare 10 point, ½-log dilutions in a final volume of 202.5 nL/well in all test wells of a 384-well diamond plate (Labcyte). Following completion of assay-ready plates, importantly, the next three steps were performed with minimal delay: 1) 20 μl of 1× stimulation buffer was added to the compound plate using a Multidrop Combi (small cassette, Thermo Fisher Scientific cat #24073290); 2) culture medium was removed from the cell plate using the Bluewasher plate washer (gentle spin; BlueCatBio); 3) 14 μl of compound/stimulation buffer mixture was added to the cell plate using a Bravo liquid handler (Agilent) prior to incubating cell plates at 37° C. with 5% CO2 and 85% humidity for 1 or 2 hours (OX1R and OX2R, respectively). During this incubation, IP-one detection reagents were prepared (38:1:1 lysis buffer:D2:AB-cryptate reagents). Six μL of mixed detection reagents were added to the cell plate using a Multidrop Combi (small cassette, Thermo Fisher Scientific cat #24073290) and incubated 60 minutes at room temperature in the dark. Fluorescence signal was detected using an Envision plate reader (Perkin Elmer) [LANCE/DELFIA Dual Enh (Em: APC 665; Ex: Cy5 620)].
For each compound, data were fit to a four parameter logistic fit (ActivityBase software) and the EC50 was reported as the inflection point of the resulting curve. Percent effect for each test compound was determined as the percentage of sample raw value/mean max effect, where the mean max effect was derived from the mean raw value of 32 control wells per assay plate (using Orexin A (cat #003-30) at 1 μM for human OX1R and a reference compound at 1 uM with 100% activity previously established by comparison to Orexin A for human OX2R). The intrinsic orexin receptor agonist activity of a compound which may be used in the present invention may be determined by these assays.

[1] = CHO cells expressing human OX2R, IP-One assay, 2 hours incubation, four parameter logistic fit, read-out: OX2R Potency, EC50

SMILES	EC50 [1] [nM]	Emax, % of reference agonist [%]	OX2R Potency, EC50 (nM) (CHO cells expressing human OX2R, IP-One assay, 2 hours incubation, four parameter logistic fit)	EC50 [nM]
CS(=O)(=O)N[C@H]1CCN(C(=O)CC(F)(F)F)[C@H]1CO[C@H]1CC[C@@H](c2ccccc2)CC1 (relative stereo) [Example 20, N-((CIS)-2-((((CIS)-4-phenylcyclohexyl)oxy)methyl)-1-(3,3,3-trifluoropropanoyl)pyrrolidin-3-yl)methanesulfonamide]	1010	96.4	–	–
CS(=O)(=O)N[C@H]1CCN(C(=O)NCC2CCC2)[C@H]1CO[C@H]1CC[C@@H](c2ccccc2)CC1 (relative stereo) [Example 21, (CIS)-N-(cyclobutylmethyl)-3-(methylsulfonamido)-2-((((CIS)-4-phenylcyclohexyl)oxy)-methyl)pyrrolidine-1-carboxamide]	5.65	103.2	–	–
CS(=O)(=O)N[C@H]1CCN(C(=O)NC2CC2)[C@H]1CO[C@H]1CC[C@@H](c2ccccc2)CC1 (relative stereo) [Example 22, (CIS)-N-cyclopropyl-3-(methylsulfonamido)-2-((((CIS)-4-phenylcyclohexyl)oxy)methyl)pyrrolidine-1-carboxamide]	250	99.6	–	–
CS(=O)(=O)N[C@H]1CCN(C(=O)OCC(F)F)[C@H]1CO[C@H]1CC[C@@H](c2ccccc2)CC1 (relative stereo) [Example 23, 2,2-difluoroethyl (CIS)-3-(methylsulfonamido)-2-((((CIS)-4-phenylcyclohexyl)oxy)methyl)-pyrrolidine-1-carboxylate]	59.6	101.3	–	–
CS(=O)(=O)N[C@H]1CCN(C(=O)OCC(F)(F)F)[C@H]1CO[C@H]1CC[C@@H](c2ccccc2)CC1 (relative stereo) [Example 24, 2,2,2-trifluoroethyl (CIS)-3-(methylsulfonamido)-2-((((CIS)-4-phenylcyclohexyl)oxy)methyl)pyrrolidine-1-carboxylate]	493	100.2	–	–
CS(=O)(=O)N[C@H]1CCN(C(=O)CO)[C@H]1CO[C@H]1CC[C@@H](c2ccccc2)CC1 (relative stereo) [Example 25, N-((CIS)-1-(2-hydroxyacetyl)-2-((((CIS)-4-phenylcyclohexyl)oxy)methyl)pyrrolidin-3-yl)methanesulfonamide]	361	103.3	–	–
CS(=O)(=O)N[C@H]1CCN(C(=O)C2CC2)C1COC1CCC(c2ccccc2)CC1 (single isomer, unassigned) [Example 26]	–	17.1	INACTIVE	–
CS(=O)(=O)N[C@H]1CCN(C(=O)C2CC2)C1COC1CCC(c2ccccc2)CC1 (single isomer, unassigned) [Example 27]	48.7	100.2	–	–
COC(=O)N1CCC(NS(C)(=O)=O)[C@@H]1COC1CCC(C(C)C)CC1 (stereo in doubt) [Example 29, methyl (2R,3R)-2-(((4-isopropylcyclohexyl)oxy)methyl)-3-(methylsulfonamido)pyrrolidine-1-carboxylate]	358	99.0	–	–
COC(=O)N1CC[C@H](NS(C)(=O)=O)[C@@H]1CO[C@H]1CC[C@@H](c2ccccc2)CC1 [Example 11, methyl (2R,3S)-3-(methylsulfonamido)-2-((((CIS)-4-phenylcyclohexyl)oxy)methyl) pyrrolidine-1-carboxylate]	115	100.2	–	–
CS(=O)(=O)N[C@H]1CCN(C(=O)OCC(F)F)[C@H]1CO[C@H]1CC[C@@H](c2ccccc2)CC1 [Example 12, 2,2-difluoroethyl (2R,3S)-3-(methylsulfonamido)-2-((((CIS)-4-phenylcyclohexyl)oxy)methyl) pyrrolidine-1-carboxylate]	81	101.1	–	–
CCNC(=O)N1CC[C@H](NS(C)(=O)=O)[C@@H]1COC1CCC(C(C)C)CC1 (stereo partly drawn) [Example 28, (2R,3S)—N-ethyl-2-(((4-isopropylcyclohexyl)oxy)methyl)-3-(methylsulfonamido)pyrrolidine-1-carboxamide]	–	99.8	–	57.8
CC(C)C1CCC(OC[C@H]2[C@@H](NS(C)(=O)=O)CCN2C(=O)C2CC2)CC1 (stereo partly drawn) [Example 30, N-((2R,3S)-1-(cyclopropanecarbonyl)-2-(((4-isopropylcyclohexyl)oxy)methyl)pyrrolidin-3-yl)methanesulfonamide]	433	100.6	–	–
